Experimental data reported in US11198699B2 (ALIGOS THERAPEUTICS, INC., priority 2019, dated 2021).

What was measured:
HepG2 hepatoma cells = assay: Cell proliferation assay, HepG2 (CellTiter-Glo, 7 days); type: cell-based; conditions: HepG2, 7 days, CellTiter-Glo 2.0
Method: (§1) HepG2 hepatoma cells (ATCC, HB-8065) were maintained in DMEM with high glucose (Lonza, 12-914F) supplemented with 10% fetal bovine serum (FBS; Biowest, S181B-500) and 2 mM L-glutamine (Biowest, X0551-100) at 37° C. and 5% CO2. A549 lung carcinoma cells (ATCC, CCL-185) were maintained in F-12K medium (ThermoFisher 21127030) supplemented with 10% FBS at 37° C. and 5% CO2. Exponentially growing HepG2 or A549 were plated in white, clear-bottom 96-well plates (Corning, 3903) at a cell density of 2000 (HepG2) or 350 (A549) cells per well in 199 μL of HepG2 medium. Next, 1 μL of a 5-fold 9-point dilution series of test compound in DMSO was added to the different wells. Cells were incubated at 37° C. 5% CO2 for 7 days. Cell viability was assessed on day 7 with the CellTiter-Glo 2.0 Cell Viability assay kit (Promega, G9243) to quantify the intracellular amounts of ATP: first, 100 μL of cell culture medium was removed from each well, next 100 μL of CellTiter-Glo® 2.0 Reagent was added and plates were shaken for 2 minutes on an orbital shaker. After 10 minutes stabilization at room temperature, read-out was performed on a ThermoFisher VarioSkan Lux plate reader. Counts were normalized to DMSO control (0% inhibition) and the cytotoxic control (100% inhibition) and EC50 values were determined in GraphPad Prism 8 using the [Agonist] vs. response—Variable slope (four parameters) function.
(§2) As shown by the data of Table 2, compounds of Formula (I) have activity in this assay. A value of ‘A’ in the table below indicates an EC50 of <20 nM, a value of ‘B’ indicates an EC50≥20 nM to <100 nM, a value of ‘C’ indicates an EC50 value of EC50≥100 nM to <1000 nM and a value of ‘D’ indicates an EC50≥1000 nM

PRMT5/MEP50 = PRMT5/MEP50 (Homo sapiens (Human), UniProt O14744); assay: PRMT5/MEP50 enzyme inhibition assay, Assay 2 (384-well, MALDI mass spectrometry, histone H4 1-21 peptide); type: biochemical; conditions: 1 μM SAM, 0.1 μM histone H4 1-21 peptide, 18-hour incubation at rt
Method: Compounds were tested for inhibition of methyltransferase activity in 384-well plate assay format using mass spectrometry technology. In this enzyme inhibition assay, compounds were tested in a 11-dose IC50 mode with 3-serial dilution, in duplicate, starting at 1, 10, or 100 μM. Reactions were carried out at 1 μM SAM and 0.1 μM histone H4 1-21 peptide as substrates for methyl transfer. Following an 18-hour incubation at rt, the reaction was stopped with 0.5% formic acid. Products of the reaction were captured while unreacted substrates were washed away, prior to MALDI mass spectrometry detection and analysis. Percent enzyme activity was calculated based on no inhibitor DMSO control as 100% activity. EC50 values were determined in GraphPad Prism 8 using the [inhibitor] vs. response—Variable slope (four parameters) function.
Compounds of Formula (I) show activity in this assay. A value of ‘A’ in the table below indicates an IC50 of <1 nM, a value of ‘B’ indicates an IC50≥1 nM to ≤100 nM, and a value of ‘C’ indicates an IC50 value of >100 nM.

[1] = system: A549 lung carcinoma cells; assay: Cell proliferation assay, A549 (CellTiter-Glo, 7 days); type: cell-based; conditions: A549, 7 days, CellTiter-Glo 2.0
Method: as §1, §2

Sequence of PRMT5/MEP50 (O14744 whole entry): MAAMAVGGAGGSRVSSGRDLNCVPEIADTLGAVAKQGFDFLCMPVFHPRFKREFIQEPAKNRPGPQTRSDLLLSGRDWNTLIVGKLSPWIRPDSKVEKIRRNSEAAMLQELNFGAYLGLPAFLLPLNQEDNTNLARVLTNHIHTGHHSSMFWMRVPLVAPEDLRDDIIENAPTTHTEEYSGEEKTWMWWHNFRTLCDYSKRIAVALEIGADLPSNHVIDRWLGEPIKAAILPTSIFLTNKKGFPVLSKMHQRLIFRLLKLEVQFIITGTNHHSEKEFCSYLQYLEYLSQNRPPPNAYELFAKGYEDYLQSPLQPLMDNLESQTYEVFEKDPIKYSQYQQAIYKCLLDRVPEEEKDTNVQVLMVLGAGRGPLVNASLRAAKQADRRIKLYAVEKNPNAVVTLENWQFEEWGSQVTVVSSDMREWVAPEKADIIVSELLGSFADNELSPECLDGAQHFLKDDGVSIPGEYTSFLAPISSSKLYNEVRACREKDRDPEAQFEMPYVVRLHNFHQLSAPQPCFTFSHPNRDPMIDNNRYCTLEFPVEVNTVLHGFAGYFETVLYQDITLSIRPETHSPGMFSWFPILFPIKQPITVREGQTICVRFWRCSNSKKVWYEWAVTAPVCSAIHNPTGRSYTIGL
Sequence of PRMT5/MEP50 (Q9BQA1 whole entry partner): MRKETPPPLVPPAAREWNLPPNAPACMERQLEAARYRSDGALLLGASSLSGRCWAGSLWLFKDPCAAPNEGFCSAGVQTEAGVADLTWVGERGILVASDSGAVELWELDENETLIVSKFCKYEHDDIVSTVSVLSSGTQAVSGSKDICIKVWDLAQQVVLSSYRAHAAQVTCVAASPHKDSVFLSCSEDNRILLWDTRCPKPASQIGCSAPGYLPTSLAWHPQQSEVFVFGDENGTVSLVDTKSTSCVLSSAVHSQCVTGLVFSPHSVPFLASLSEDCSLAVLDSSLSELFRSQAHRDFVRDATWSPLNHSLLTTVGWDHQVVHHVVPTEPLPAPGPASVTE

Row | Structure (SMILES) | EC50 (HepG2 hepatoma cells; Homo sapiens, 168 h) [nM] | IC50 (PRMT5/MEP50) [nM] | EC50 ([1]; Homo sapiens, A549, 168 h) [nM] | EC50 (HepG2 hepatoma cells) [nM] | EC50 [1] [nM]
1 | C[C@]1(CCc2cc(F)c3cc(Cl)c(N)nc3c2)C[C@@H](n2ccc3c(N)ncnc32)[C@H](O)[C@@H]1O [Compound 30, (1S,2R,3S,5R)-3-(2-(2-amino-3-chloro-5-fluoroquinolin-7-yl)ethyl)-5-(4-amino-7H-pyrrolo[2,3-d]pyrimidin-7-yl)-3-methylcyclopentane-1,2-diol] | < 20 | < 1 | < 20 |  | 
2 | C[C@]1(CCc2ccc3cc4c(nc3c2)NC(=O)CO4)C[C@@H](n2ccc3c(N)ncnc32)[C@H](O)[C@@H]1O [Compound 31, 7-(2-((1S,2R,3S,4R)-4-(4-amino-7H-pyrrolo[2,3-d]pyrimidin-7-yl)-2,3-dihydroxy-1-methylcyclopentyl)ethyl)-2H-[1,4]oxazino[3,2-b]quinolin-3(4H)-one] | 100 to 1000 | < 1 | ≥ 1000 |  | 
3 | Nc1nc2cc(CC[C@@]3(F)C[C@@H](n4ccc5c(N)ncnc54)[C@H](O)[C@@H]3O)cc(F)c2cc1Cl [Compound 36, (1S,2S,3R,5R)-3-(2-(2-amino-3-chloro-5-fluoroquinolin-7-yl)ethyl)-5-(4-amino-7H-pyrrolo[2,3-d]pyrimidin-7-yl)-3-fluorocyclopentane-1,2-diol] | < 20 | < 1 | < 20 |  | 
4 | C[C@]1(CCc2cc(F)c3ccc(N)nc3c2)C[C@@H](n2ccc3c(N)ncnc32)[C@H](O)[C@@H]1O [Compound 37, (1S,2R,3S,5R)-3-(2-(2-amino-5-fluoroquinolin-7-yl)ethyl)-5-(4-amino-7H-pyrrolo[2,3-d]pyrimidin-7-yl)-3-methylcyclopentane-1,2-diol] | < 20 | < 1 | < 20 |  | 
5 | C[C@]1(CCc2ccc3ccc(N)nc3c2)C[C@@H](n2ccc3c(N)nccc32)[C@H](O)[C@@H]1O [Compound 38, (1S,2R,3S,5R)-5-(4-amino-1H-pyrrolo[3,2-c]pyridin-1-yl)-3-(2-(2-aminoquinolin-7-yl)ethyl)-3-methylcyclopentane-1,2-diol] | < 20 | < 1 | < 20 |  | 
6 | C[C@]1(CCc2cc(F)c3cc(Cl)c(N)nc3c2)C[C@@H](n2ccc3c(N)nccc32)[C@H](O)[C@@H]1O [Compound 39, (1S,2R,3S,5R)-5-(4-amino-1H-pyrrolo[3,2-c]pyridin-1-yl)-3-(2-(2-amino-3-chloro-5-fluoroquinolin-7-yl)ethyl)-3-methylcyclopentane-1,2-diol] | 20 to 100 | < 1 | 20 to 100 |  | 
7 | Nc1nc2cc(CC[C@@]3(CO)C[C@@H](n4ccc5c(N)ncnc54)[C@H](O)[C@@H]3O)cc(F)c2cc1Cl [Compound 40, (1S,2R,3S,5R)-3-(2-(2-amino-3-chloro-5-fluoroquinolin-7-yl)ethyl)-5-(4-amino-7H-pyrrolo[2,3-d]pyrimidin-7-yl)-3-(hydroxymethyl)cyclopentane-1,2-diol] | < 20 | < 1 | < 20 |  | 
8 | C[C@]1(CCc2cc3nc(N)ccc3c(F)c2F)C[C@@H](n2ccc3c(N)ncnc32)[C@H](O)[C@@H]1O [Compound 41, (1S,2R,3S,5R)-3-(2-(2-amino-5,6-difluoroquinolin-7-yl)ethyl)-5-(4-amino-7H-pyrrolo[2,3-d]pyrimidin-7-yl)-3-methylcyclopentane-1,2-diol] | < 20 | < 1 | < 20 |  | 
9 | C[C@]1(CCc2cc(F)c3ccc(N)nc3c2)C[C@@H](n2ccc3c(N)ncc(F)c32)[C@H](O)[C@@H]1O [Compound 42, (1S,2R,3S,5R)-3-(2-(2-amino-5-fluoroquinolin-7-yl)ethyl)-5-(4-amino-7-fluoro-1H-pyrrolo[3,2-c]pyridin-1-yl)-3-methylcyclopentane-1,2-diol] | < 20 | < 1 | < 20 |  | 
10 | C[C@]1(CCc2cc(F)c3cc(Cl)c(N)nc3c2)C[C@@H](n2cc(F)c3c(N)nccc32)[C@H](O)[C@@H]1O [Compound 43, (1S,2R,3S,5R)-3-(2-(2-amino-3-chloro-5-fluoroquinolin-7-yl)ethyl)-5-(4-amino-3-fluoro-1H-pyrrolo[3,2-c]pyridin-1-yl)-3-methylcyclopentane-1,2-diol] | 20 to 100 | < 1 | < 20 |  | 
11 | N#C[C@]1(CCc2cc(F)c3cc(Cl)c(N)nc3c2)C[C@@H](n2ccc3c(N)ncnc32)[C@H](O)[C@@H]1O [Compound 44, (1S,2R,3S,4R)-1-(2-(2-amino-3-chloro-5-fluoroquinolin-7-yl)ethyl)-4-(4-amino-7H-pyrrolo[2,3-d]pyrimidin-7-yl)-2,3-dihydroxycyclopentane-1-carbonitrile] | 100 to 1000 | < 1 | 20 to 100 |  | 
12 | NC(=O)[C@]1(CCc2cc(F)c3cc(Cl)c(N)nc3c2)C[C@@H](n2ccc3c(N)ncnc32)[C@H](O)[C@@H]1O [Compound 45, (1R,2R,3S,4R)-1-(2-(2-amino-3-chloro-5-fluoroquinolin-7-yl)ethyl)-4-(4-amino-7H-pyrrolo[2,3-d]pyrimidin-7-yl)-2,3-dihydroxycyclopentane-1-carboxamide] | 100 to 1000 | < 1 | 100 to 1000 |  | 
13 | C[C@]1(CCCCc2ccc(Cl)c(N)n2)C[C@@H](n2ccc3c(N)ncnc32)[C@H](O)[C@@H]1O [Compound 46, (1S,2R,3S,5R)-3-(4-(6-amino-5-chloropyridin-2-yl)butyl)-5-(4-amino-7H-pyrrolo[2,3-d]pyrimidin-7-yl)-3-methylcyclopentane-1,2-diol] | 100 to 1000 | < 1 | 100 to 1000 |  | 
14 | C[C@]1(CCCCc2cccc(N)n2)C[C@@H](n2ccc3c(N)ncnc32)[C@H](O)[C@@H]1O [Compound 47] | 100 to 1000 | < 1 | 20 to 100 |  | 
15 | C[C@]1(CCc2ccc3ccc(N)nc3c2)C[C@@H](c2ccc3c(N)ncnn23)[C@H](O)[C@@H]1O [Compound 48] | < 20 | < 1 | < 20 |  | 
16 | C[C@]1(CCc2ccc3cc(Cl)c(N)nc3c2)C[C@@H](n2ccc3c(N)ncc(F)c32)[C@H](O)[C@@H]1O [Compound 49] | < 20 | < 1 | < 20 |  | 
17 | C=C[C@]1(CCc2cc(F)c3cc(Cl)c(N)nc3c2)C[C@@H](n2ccc3c(N)ncnc32)[C@H](O)[C@@H]1O [Compound 51] | < 20 | < 1 | < 20 |  | 
18 | C#C[C@]1(CCc2cc(F)c3cc(Cl)c(N)nc3c2)C[C@@H](n2ccc3c(N)ncnc32)[C@H](O)[C@@H]1O [Compound 52] | < 20 | < 1 | < 20 |  | 
19 | C[C@]1(CCc2cc(F)c3cc(Cl)c(N)nc3c2)C[C@@H](n2ccc3c(N)nc(Cl)nc32)[C@H](O)[C@@H]1O [Compound 53] |  | < 1 |  | < 20 | < 20
20 | C[C@]1(CCc2ccc3cc(Br)c(N)nc3c2)C[C@@H](n2ccc3c(N)nc(Cl)nc32)[C@H](O)[C@@H]1O [Compound 54] | < 20 | < 1 | < 20 |  | 
21 | C[C@]1(CCc2ccc3ccc(N)nc3c2)C[C@@H](c2cnn3c(N)ncnc23)[C@H](O)[C@@H]1O [Compound 56] | < 20 | < 1 | < 20 |  | 
